# According to paper PMC6364417, “Kinase inhibitor library screening identifies synergistic drug combinations effective in sensitive and resistant melanoma cells” (Journal of Experimental & Clinical Cancer Research : CR, 2019):
# Assays:
# Assay in all cases: Kinase inhibitor library screening, PrestoBlue cell viability, 1 or 10 μM, 72 h
# 501Mel cells (parental) = details: 501Mel Parental
# Outline: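 Sensitive parental cells and their resistant derivatives were exposed to library compounds for 72 h. Values represent viability as a percentage of untreated cells.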
# [1] = tested on: 501Mel-GP cells (Dabrafenib-resistant); details: 501Mel GP
# [2] = tested on: 501Mel-XP cells (Vemurafenib-resistant); details: 501Mel XP
# A375 cells (parental) = details: A375 Parental
# [3] = tested on: A375-GP cells (Dabrafenib-resistant); details: A375 GP
# [4] = tested on: A375-XP cells (Vemurafenib-resistant); details: A375 XP
# IGR37 cells (parental) = details: IGR37 Parental
# [5] = tested on: IGR37-GP cells (Dabrafenib-resistant); details: IGR37 GP
# [6] = tested on: IGR37-XP cells (Vemurafenib-resistant); details: IGR37 XP
compound,measurement,setting,value
COc1cc2nccc(Oc3ccc(NC(=O)NC4CC4)c(Cl)c3)c2cc1C(N)=O [E7080 (Lenvatinib)],cell viability (kinase inhibitor library screening),"501Mel cells (parental); 1μΜ, in %",106.1
same,cell viability (kinase inhibitor library screening),"501Mel cells (parental); 10μΜ, in %",105.7
same,cell viability (kinase inhibitor library screening),"[1]; 1μΜ, in %",106.1
same,cell viability (kinase inhibitor library screening),"[1]; 10μΜ, in %",90.9
same,cell viability (kinase inhibitor library screening),"[2]; 1μΜ, in %",98.9
same,cell viability (kinase inhibitor library screening),"[2]; 10μΜ, in %",87.0
same,cell viability (kinase inhibitor library screening),"A375 cells (parental); 1μΜ, in %",103.7
same,cell viability (kinase inhibitor library screening),"A375 cells (parental); 10μΜ, in %",95.8
same,cell viability (kinase inhibitor library screening),"[3]; 10μΜ, in %",94.8
same,cell viability (kinase inhibitor library screening),"[4]; 10μΜ, in %",109.2
same,cell viability (kinase inhibitor library screening),"IGR37 cells (parental); 1μΜ, in %",102.9
same,cell viability (kinase inhibitor library screening),"IGR37 cells (parental); 10μΜ, in %",104.3
same,cell viability (kinase inhibitor library screening),"[5]; 1μΜ, in %",97.5
same,cell viability (kinase inhibitor library screening),"[5]; 10μΜ, in %",86.5
same,cell viability (kinase inhibitor library screening),"[6]; 1μΜ, in %",97.7
same,cell viability (kinase inhibitor library screening),"[6]; 10μΜ, in %",58.8
CNC(=O)c1nn(C)c2c1C(C)(C)Cc1cnc(Nc3ccc(N4CCN(C)CC4)cc3)nc1-2 [PHA-848125],cell viability (kinase inhibitor library screening),"501Mel cells (parental); 1μΜ, 72 h",75.4%
same,cell viability (kinase inhibitor library screening),"501Mel cells (parental); 10μΜ, 72 h",14.7%
same,cell viability (kinase inhibitor library screening),"[1]; 1μΜ, 72 h",63.8%
same,cell viability (kinase inhibitor library screening),"[1]; 10μΜ, 72 h",28.1%
same,cell viability (kinase inhibitor library screening),"[2]; 1μΜ, 72 h",75.1%
same,cell viability (kinase inhibitor library screening),"[2]; 10μΜ, 72 h",14.5%
same,cell viability (kinase inhibitor library screening),"A375 cells (parental); 10μΜ, 72 h",5.7%
same,cell viability (kinase inhibitor library screening),"A375 cells (parental); 1μΜ, 72 h",56.7%
same,cell viability (kinase inhibitor library screening),"[3]; 1μΜ, 72 h",57.9%
same,cell viability (kinase inhibitor library screening),"[3]; 10μΜ, 72 h",4.3%
same,cell viability (kinase inhibitor library screening),"[4]; 1μΜ, 72 h",66.4%
same,cell viability (kinase inhibitor library screening),"[4]; 10μΜ, 72 h",7.5%
same,cell viability (kinase inhibitor library screening),"IGR37 cells (parental); 1μΜ, 72 h",95.1%
same,cell viability (kinase inhibitor library screening),"IGR37 cells (parental); 10μΜ, 72 h",70.2%
same,cell viability (kinase inhibitor library screening),"[5]; 1μΜ, 72 h",78.8%
same,cell viability (kinase inhibitor library screening),"[5]; 10μΜ, 72 h",66.9%
same,cell viability (kinase inhibitor library screening),"[6]; 1μΜ, 72 h",75.2%
same,cell viability (kinase inhibitor library screening),"[6]; 10μΜ, 72 h",31.7%
C#Cc1cccc(Nc2ncnc3cc(OCCOC)c(OCCO)cc23)c1 [OSI-420 (Desmethyl Erlotinib)],"cell viability, 501Mel Parental, 1μΜ","501Mel cells (parental); 1μΜ, 72 h, in %",109.3
same,"cell viability, 501Mel Parental, 10μΜ","501Mel cells (parental); 10μΜ, 72 h, in %",100.2
same,"cell viability, 501Mel GP, 1μΜ","[1]; 1μΜ, 72 h, in %",106.0
same,"cell viability, 501Mel GP, 10μΜ","[1]; 10μΜ, 72 h, in %",79.2
same,"cell viability, 501Mel XP, 1μΜ","[2]; 1μΜ, 72 h, in %",117.2
same,"cell viability, 501Mel XP, 10μΜ","[2]; 10μΜ, 72 h, in %",44.4
same,"cell viability, A375 Parental, 10μΜ","A375 cells (parental); 10μΜ, 72 h, in %",54.9
same,"cell viability, A375 GP, 1μΜ","[3]; 1μΜ, 72 h, in %",96.7
same,"cell viability, A375 GP, 10μΜ","[3]; 10μΜ, 72 h, in %",88.2
same,"cell viability, A375 XP, 10μΜ","[4]; 10μΜ, 72 h, in %",79.2
same,"cell viability, IGR37 Parental, 1μΜ","IGR37 cells (parental); 1μΜ, 72 h, in %",108.5
same,"cell viability, IGR37 Parental, 10μΜ","IGR37 cells (parental); 10μΜ, 72 h, in %",104.1
same,"cell viability, IGR37 GP, 10μΜ","[5]; 10μΜ, 72 h",81.4%
same,"cell viability, IGR37 GP, 1μΜ","[5]; 1μΜ, 72 h, in %",91.6
same,"cell viability, IGR37 XP, 10μΜ","[6]; 10μΜ, 72 h",45.3%
same,"cell viability, IGR37 XP, 1μΜ","[6]; 1μΜ, 72 h, in %",83.7
Oc1cc(O)cc(/C=C/c2ccc(O)c(O)c2)c1 [Piceatannol],cell viability (kinase inhibitor library screening),"501Mel cells (parental); 1μΜ, in %",98.4
same,cell viability (kinase inhibitor library screening),"501Mel cells (parental); 10μΜ, in %",84.8
same,cell viability (kinase inhibitor library screening),"[1]; 1μΜ, in %",95.8
same,cell viability (kinase inhibitor library screening),"[1]; 10μΜ, in %",80.4
same,cell viability (kinase inhibitor library screening),"[2]; 1μΜ, in %",96.8
same,cell viability (kinase inhibitor library screening),"[2]; 10μΜ, in %",81.1
same,cell viability (kinase inhibitor library screening),"A375 cells (parental); 1μΜ, in %",98.9
same,cell viability (kinase inhibitor library screening),"A375 cells (parental); 10μΜ, in %",76.1
same,cell viability (kinase inhibitor library screening),"[3]; 1μΜ, in %",93.0
same,cell viability (kinase inhibitor library screening),"[3]; 10μΜ, in %",80.7
same,cell viability (kinase inhibitor library screening),"[4]; 1μΜ, in %",98.5
same,cell viability (kinase inhibitor library screening),"[4]; 10μΜ, in %",89.0
same,cell viability (kinase inhibitor library screening),"IGR37 cells (parental); 1μΜ, in %",98.6
same,cell viability (kinase inhibitor library screening),"IGR37 cells (parental); 10μΜ, in %",86.6
same,cell viability (kinase inhibitor library screening),"[5]; 1μΜ, in %",91.5
same,cell viability (kinase inhibitor library screening),"[5]; 10μΜ, in %",85.8
same,cell viability (kinase inhibitor library screening),"[6]; 1μΜ, in %",92.0
same,cell viability (kinase inhibitor library screening),"[6]; 10μΜ, in %",82.4
